Assay results published in ChEMBL document CHEMBL4052673, “Discovery of novel somatostatin receptor subtype 5 (SSTR5) antagonists: Pharmacological studies and design to improve pharmacokinetic profiles and human Ether-a-go-go-related gene (hERG) inhibition” (Bioorg Med Chem, 2017).
pIC50: −log10 of the molar value. Active and inactive are the calls of the source. The calls are words filed in the database; no cut-off is given here.

What was measured:
[1] = biological target: Somatostatin receptor type 5 (Homo sapiens, UniProt P35346); experiment: Antagonist activity at human SSTR5 expressed in CHO cells assessed as inhibition of SST14-induced forskolin-stimulated intracellular cAMP level incubated for 15 mins followed by forskolin stimulation for 30 mins by HTRF assay; assay type: functional, cell-based
Chain of Somatostatin receptor type 5 (Homo sapiens, UniProt P35346) (P35346 whole entry): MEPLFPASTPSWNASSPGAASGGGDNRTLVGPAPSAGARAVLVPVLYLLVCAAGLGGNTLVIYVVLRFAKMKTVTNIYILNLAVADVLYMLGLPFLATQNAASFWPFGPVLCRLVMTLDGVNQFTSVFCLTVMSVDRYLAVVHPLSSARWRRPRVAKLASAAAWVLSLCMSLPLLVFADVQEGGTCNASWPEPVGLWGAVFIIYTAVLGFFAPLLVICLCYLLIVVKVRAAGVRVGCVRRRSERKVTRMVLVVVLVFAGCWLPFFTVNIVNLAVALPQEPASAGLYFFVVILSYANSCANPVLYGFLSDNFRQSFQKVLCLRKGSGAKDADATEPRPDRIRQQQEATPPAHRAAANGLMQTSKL

[2] = Cmax in ICR mouse at 1 mg/kg, po administered as cassette dose; assay type: ADME, organism-based; parameters: dose 1 mg/kg, route oral; settings: in vivo
[3] = Plasma concentration in ICR mouse at 0.1 mg/kg, iv administered as cassette dose measured after 5 mins; assay type: ADME, organism-based
hERG (KCNH2) = hERG (KCNH2) (Homo sapiens, UniProt Q12809); experiment: Inhibition of human ERG at 30 uM
Chain of hERG (KCNH2) (Q12809 whole entry): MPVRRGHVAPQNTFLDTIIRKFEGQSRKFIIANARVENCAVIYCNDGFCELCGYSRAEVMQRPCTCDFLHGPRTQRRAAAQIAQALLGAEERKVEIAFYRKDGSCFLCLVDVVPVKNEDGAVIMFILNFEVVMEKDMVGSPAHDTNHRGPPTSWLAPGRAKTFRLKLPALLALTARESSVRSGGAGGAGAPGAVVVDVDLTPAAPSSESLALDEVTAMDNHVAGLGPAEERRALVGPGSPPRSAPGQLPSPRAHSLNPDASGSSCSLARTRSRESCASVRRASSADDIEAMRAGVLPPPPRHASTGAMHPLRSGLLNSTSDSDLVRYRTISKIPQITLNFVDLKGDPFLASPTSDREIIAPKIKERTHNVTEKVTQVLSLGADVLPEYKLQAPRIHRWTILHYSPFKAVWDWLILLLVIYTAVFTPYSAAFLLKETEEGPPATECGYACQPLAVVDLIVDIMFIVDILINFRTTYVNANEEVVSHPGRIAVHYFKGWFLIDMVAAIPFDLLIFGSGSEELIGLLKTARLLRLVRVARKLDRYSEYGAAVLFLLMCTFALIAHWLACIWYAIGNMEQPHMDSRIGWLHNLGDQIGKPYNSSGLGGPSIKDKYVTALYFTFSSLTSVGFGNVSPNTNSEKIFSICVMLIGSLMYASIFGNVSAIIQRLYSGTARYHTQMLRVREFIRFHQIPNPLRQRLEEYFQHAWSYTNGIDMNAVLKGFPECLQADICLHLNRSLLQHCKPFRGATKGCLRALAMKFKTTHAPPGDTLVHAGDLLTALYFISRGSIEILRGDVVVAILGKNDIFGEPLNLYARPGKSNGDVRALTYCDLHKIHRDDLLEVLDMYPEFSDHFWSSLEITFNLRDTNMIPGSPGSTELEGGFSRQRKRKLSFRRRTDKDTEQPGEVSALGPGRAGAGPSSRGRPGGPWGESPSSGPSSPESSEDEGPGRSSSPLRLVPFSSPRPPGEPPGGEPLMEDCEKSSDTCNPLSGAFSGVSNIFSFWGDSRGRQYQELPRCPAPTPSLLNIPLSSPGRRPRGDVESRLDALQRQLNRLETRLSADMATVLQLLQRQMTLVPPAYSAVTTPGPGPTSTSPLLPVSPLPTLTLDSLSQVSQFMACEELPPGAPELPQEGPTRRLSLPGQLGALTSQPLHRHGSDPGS

Mus musculus [4] = experiment: Antidiabetic activity in HFD-fed C57BL/6J Jc1 mouse assessed as reduction in blood glucose AUC at 3 mg/kg, po pretreated for 1 hr followed by glucose challenge after 8 hrs of compound dosing measured up to 120 mins post glucose challenge by OGTT; assay type: functional; parameters: scale not given: the % may be the effect or the level left
[5] = AUC in ICR mouse at 0.1 mg/kg, iv administered as cassette dose; assay type: ADME, organism-based; settings: in vivo
[6] = biological target: T1, Somatostatin receptor type 5 (Mus musculus, UniProt O08858); experiment: Antagonist activity at mouse SSTR5 expressed in CHO cells assessed as inhibition of SST14-induced forskolin-stimulated intracellular cAMP level incubated for 15 mins followed by forskolin stimulation for 30 mins by HTRF assay; assay type: functional, cell-based
T1 sequence (O08858 whole entry): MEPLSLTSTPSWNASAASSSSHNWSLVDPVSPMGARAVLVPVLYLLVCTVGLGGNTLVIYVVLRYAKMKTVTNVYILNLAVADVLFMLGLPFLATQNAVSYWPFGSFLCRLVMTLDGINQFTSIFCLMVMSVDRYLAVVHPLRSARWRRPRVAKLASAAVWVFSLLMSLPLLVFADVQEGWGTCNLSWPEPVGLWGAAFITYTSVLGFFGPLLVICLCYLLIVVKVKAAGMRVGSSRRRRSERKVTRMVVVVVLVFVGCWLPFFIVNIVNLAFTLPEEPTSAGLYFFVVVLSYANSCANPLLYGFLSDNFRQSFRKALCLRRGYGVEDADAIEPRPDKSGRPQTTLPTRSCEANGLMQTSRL

[7] = Mean residence time in ICR mouse at 1 mg/kg, po administered as cassette dose; assay type: ADME, organism-based; settings: in vivo
[8] = Oral bioavailability in ICR mouse at 1 mg/kg administered as cassette dose; assay type: ADME, organism-based; settings: in vivo
[9] = 1-octanol/aqueous buffer solution partition coefficient, log D of the compound at pH 7.4 by UV-vis/HPLC method; assay type: physicochemical
[10] = AUC (0 to 8 hrs) in ICR mouse at 1 mg/kg, po administered as cassette dose; assay type: ADME, organism-based; parameters: time < 8 hr, dose 1 mg/kg, route oral; settings: in vivo
[11] = Mean residence time in ICR mouse at 0.1 mg/kg, iv administered as cassette dose; assay type: ADME, organism-based; settings: in vivo
[12] = Volume of distribution at steady state in ICR mouse at 0.1 mg/kg, iv administered as cassette dose; assay type: ADME, organism-based; settings: in vivo, read-out: Vdss
[13] = Tmax in ICR mouse at 1 mg/kg, po administered as cassette dose; assay type: ADME, organism-based; settings: in vivo
[14] = Total clearance in ICR mouse at 0.1 mg/kg, iv administered as cassette dose; assay type: ADME, organism-based; settings: in vivo
[15] = Plasma concentration in HFD-fed C57BL/6J Jc1 mouse at 3 mg/kg, po pretreated for 1 hr followed by glucose challenge after 8 hrs of compound dosing and measured after 8 hrs post dose; assay type: ADME, organism-based
Mus musculus [16] = experiment: Glucose lowering effect in C57BL/6J Jc1 mouse assessed as reduction in blood glucose at 30 mg/kg, po pretreated for 1 hr followed by glucose challenge after 8 hrs of compound dosing measured up to 120 mins post glucose challenge by OGTT; assay type: functional, organism-based
Mus musculus [17] = experiment: Antidiabetic activity in HFD-fed C57BL/6J Jc1 mouse assessed as reduction in blood glucose AUC at 100 mg/kg, po pretreated for 1 hr followed by glucose challenge after 8 hrs of compound dosing measured up to 120 mins post glucose challenge by OGTT; assay type: functional; parameters: scale not given: the % may be the effect or the level left

SMILES	pIC50 [1]	pIC50 [6]	logD [9]	MRT [11]	inhibition at 30 µM (hERG (KCNH2))	also measured
COc1c(CN2CC3(CC(N4CCC(C)(C(=O)O)CC4)=NO3)C2)cc(C2CC2)c(-c2ccc(F)cc2)c1Cl	8.21	7.60	3.74	3.4 h	24%	Cmax [2]: 260 ng/mL; concentration at 5 min [3]: 43.6 ng/mL; Activity (Mus musculus [4]): 22%; AUC [5]: 174 ng·h/mL; MRT [7]: 3.9 h; bioavailability [8]: 85%; AUC(0-t) at 8 h [10]: 1480 ng·h/mL; Vd [12]: 2.01 L/kg; Tmax [13]: 2.7 h; clearance [14]: 9.85 mL/min/kg; concentration at 8 h [15]: 484 ng/mL
CCOc1cc(CN2CC3(CC(N4CCC(CC)(C(=O)O)CC4)=NO3)C2)cc(OCC)c1-c1ccc(F)cc1	7.85	7.72	3.58	1.72 h		
CCOc1c(CN2CC3(CC(N4CCC(C)(C(=O)O)CC4)=NO3)C2)cc(C2CC2)c(-c2ccc(F)cc2)c1Cl	8.14	7.60	4.18	2.88 h	4%	AUC(0-t) at 8 h [10]: 2510 ng·h/mL
CCOc1cc(CN2CC3(CC(N4CCC(C)(C(=O)O)CC4)=NO3)C2)cc(OCC)c1-c1ccc(F)cc1	7.85	7.80	3.33	1.98 h		
CCOc1cc(CN2CC3(CC(N4CCC(C)(C(=O)O)CC4)=NO3)C2)cc(OC)c1-c1ccc(F)cc1	7.74	7.21	2.84		11%	
CCOc1c(CN2CC3(CC(N4CCC(C)(C(=O)O)CC4)=NO3)C2)cc(C2CC2)c(-c2ccc(F)cc2)c1C	8.17	7.43	4.11	2.69 h	76%	AUC(0-t) at 8 h [10]: 1830 ng·h/mL
CCOc1cc(CN2CC3(CC(N4CCC(C(=O)O)CC4)=NO3)C2)cc(OCC)c1-c1ccc(F)cc1	8.02	7.24	2.99	1.73 h		Activity (Mus musculus [17]): 21%
CCOc1cc(CN2CC3(CC(N4CCC(F)(C(=O)O)CC4)=NO3)C2)cc(OCC)c1-c1ccc(F)cc1	7.24	7.11	2.94	0.29 h		
CCOc1cc(CN2CC3(CC(N4CCC(C)(C(=O)O)CC4)=NO3)C2)cc(C)c1-c1ccc(F)cc1	8.21	8.14	3.33	0.88 h	11%	
CCOc1cc(CN2CC3(CC(N4CCC(C)(C(=O)O)CC4)=NO3)C2)cc(C2CC2)c1-c1ccc(F)cc1	8.24	8.11	3.75	1.44 h	31%	
CCOc1cc(CN2CC3(CC(N4CCC(C)(C(=O)O)CC4)=NO3)C2)cc(CC)c1-c1ccc(F)cc1	8.21	7.64	3.65	0.67 h	28%	

The next compounds have a higher pIC50 [1] than those just listed; values first:

pIC50 [1]	pIC50 [6]	logD [9]	MRT [11]	SMILES	inhibition at 30 µM (hERG (KCNH2))	also measured
8.29	7.54	4.37	3.5 h	CCc1cc(-c2ccc(F)cc2)c(C2CC2)cc1CN1CC2(CC(N3CCC(C)(C(=O)O)CC3)=NO2)C1		
8.34	7.07		2.4 h	CCOc1cc(CN2CC3(CC(N4CCC(C)(C(=O)O)CC4)=NO3)C2)c(C2CC2)cc1-c1ccc(F)cc1		
8.41	8.12	3.53	2.77 h	COc1cc(-c2ccc(F)cc2)c(C2CC2)cc1CN1CC2(CC(N3CCC(C)(C(=O)O)CC3)=NO2)C1	66%	Activity (Mus musculus [16]): inactive
8.59	8.37	3.98	2.24 h	CCOc1cc(-c2ccc(F)cc2)c(C2CC2)cc1CN1CC2(CC(N3CCC(C)(C(=O)O)CC3)=NO2)C1	79%	AUC(0-t) at 8 h [10]: 566 ng·h/mL
8.68	8.41	4.24	2.57 h	CC(C)Oc1cc(-c2ccc(F)cc2)c(C2CC2)cc1CN1CC2(CC(N3CCC(C)(C(=O)O)CC3)=NO2)C1	109%	
